Read-outs that look alike come from different tables or passages of the source.
Key:
[1] = tested on: mouse melanoma B16 cells; format: in vivo, C57BL/6 mice; conditions: intravenous injection, equimolar to 5.00 mg/kg 4′-demethylepipodophyllotoxin; for curative effect on lung metastatic tumor: 22nd day after modeling; for tumor-bearing lung weight / number of lung metastasis tumor nodules: sacrificed on the 22nd day; for tumor-bearing lung weight: compared with control group (FIG. 3); for number of lung metastasis tumor nodules: compared with control group (FIG. 4)
Description: The experiment was performed according to the method reported by Small, 2014(3):524-535. C57BL/6 mice (male, 20±2 g, 6 to 8 week-old) were used and intravenously injected with mouse melanoma B16 cells in logarithmic growth phase. 5×10^5 cells were injected into each mouse to establish a melanoma lung metastasis model, and the mice were randomly divided into 5 groups (recorded as the 0th day). The injections for intravenous injecting used in the experiment were prepared according to Example 6. On the 4th, 7th and 13th day after the modeling, each group was subjected to intravenous injection for […]. 4′-demethylepipodophyllotoxin was provided at a dosage of 5.00 mg/kg, and etoposide, compound DC and compound DP were provided at equimolar amount with 4′-demethylepipodophyllotoxin, and the administration dosages were etoposide 7.36 mg/kg, compound DC 7.89 mg/kg, and compound DP 7.69 mg/kg, respectively. The control group was administered with equal amount of solvent. All mice were housed normally and sacrificed on the 22nd day after modeling. The lung tissue was immediately separated out, washed with physiological saline and weighed, and the number of tumor nodules was calculated.

[2] = for concentration in the lung compared with 4′-demethylepipodophyllotoxin original drug group and etoposide control group: 5 minutes after administration by tail intravenous injection (FIG. 1); for time for which a relatively high drug concentration in the lung lasted (retention time in the lung): after tail intravenous injection; for drug concentration in the lung compared with 4′-demethylepipodophyllotoxin original drug group and etoposide control group: at each time point after tail intravenous injection (FIG. 2); for lung relative uptake rate Re (AUC0-t,lung compound / AUC0-t,lung drug) / peak concentration ratio Ce in the lung (Cmax,lung compound / Cmax,lung drug): versus 4′-demethylepipodophyllotoxin original drug group; for lung relative uptake rate Re (AUC0-t,lung compound / AUC0-t,lung drug) / peak concentration ratio Ce in the lung (Cmax,lung compound / Cmax,lung drug) / lung relative uptake rate Re (AUC0-t,lung compound / AUC0-t,lung control) / peak concentration ratio Ce in the lung (Cmax,lung compound / Cmax,lung control): tail intravenous injection; for lung relative uptake rate Re (AUC0-t,lung compound / AUC0-t,lung drug) / lung relative uptake rate Re (AUC0-t,lung compound / AUC0-t,lung control) / peak concentration ratio Ce in the lung (Cmax,lung compound / Cmax,lung control): equimolar doses; for peak concentration ratio Ce in the lung (Cmax,lung compound / Cmax,lung drug): equimolar to 10.00 mg/kg 4′-demethylepipodophyllotoxin; for lung relative uptake rate Re (AUC0-t,lung compound / AUC0-t,lung control) / peak concentration ratio Ce in the lung (Cmax,lung compound / Cmax,lung control): versus etoposide control group
Description: 16 mg of 4′-demethylepipodophyllotoxin was accurately weighed, 5% DMSO, 20% polyethylene glycol 400 and 20% absolute ethanol were added to help dissolution, so as to prepare an injection for intravenous injection with a concentration of 2 mg/mL. 28 mg of etoposide was accurately weighed, and 5% DMSO, 20% polyethylene glycol 400 and 20% absolute ethanol were added to help dissolution, so as to prepare an injection for intravenous injection with a concentration of 3.5 mg/mL. 30.40 mg of compound DC or DP was accurately weighed, and 5% DMSO, 20% polyethylene glycol 400 and 20% absolute ethanol were added to help dissolution, so as to prepare an injection for intravenous injection with a concentration of 3.8 mg/mL.
200 Kunming mice (male, 20±2 g) were used, which were fasted for 12 h before the experiment and given free access to water. In the experiment, they were randomly divided into 4 groups and administered by tail intravenous injection. The administration of 4′-demethylepipodophyllotoxin was carried out with a dosage of 10.00 mg/kg. Etoposide, compound DC and compound DP were administered in equimolar amount as 4′-demethylepipodophyllotoxin, and the administration dosages were etoposide 14.71 mg/kg, compound DC 15.78 mg/kg, and compound DP 15.38 mg/kg, respectively. 5 minutes, 15 minutes, 30 minutes, 1 hour, 2 hours, 4 hours, 8 hours, 12 hours, 24 hours and 48 hours after administration, the blood was collected and the mice sacrificed in all groups. The whole blood was put into sodium heparin-containing EP tubes, centrifuged at 5000 rpm at 4° C. for 5 min, and the upper plasma was collected and frozen at −40° C. for use. The hearts, livers, spleens, lungs, kidneys, brains and pancreas of the mice were immediately separated, and the residual blood was washed away with physiological saline. The remaining water on the surfaces of the organs was absorbed with filter papers. The organs were weighed and physiological saline 2 times the volume of the organs was added for homogenization.
0.1 mL of mouse plasma and 0.1 mL of tissue homogenate were taken and put into a 0.5 mL EP tube, 0.3 mL of methanol was added to all the samples as a protein precipitant. The sample was subjected to vortex vibration for 5 minutes, and then centrifuged at 13000 rpm at 4° C. for 10 min. The supernatant was taken and filtered with a 0.22 μm organic filtration membrane, and 1 μL of the sample was taken and subjected to LC-MS/MS analysis.
LC-MS/MS Analysis Condition
Liquid phase conditions: Agilent 1200 Series High Resolution Rapid LC System (RRLC); chromatographic column: Agilent Diamonsil ODS column (50 mm×4.6 mm, 1.8 μm); mobile phase: for 4′-demethylepipodophyllotoxin, methanol:0.1% formic acid aqueous solution=50:50, for etoposide, acetonitrile:0.1% formic acid aqueous solution=35:65, for compound DC, methanol:0.1% formic acid aqueous solution=[…], and for compound DP, methanol:0.1% formic acid aqueous solution=34:66; flow rate: 0.4 mL/min; column temperature: 30° C.; and injection volume: 1 μL.
Mass spectra conditions: Agilent Triple Quadrupole Mass Spectrometry (6410B); the analytes were subjected to a multiple reaction monitoring (MRM) in positive mode: for 4′-demethylepipodophyllotoxin, etoposide, compound DC and compound DP, fragmentation voltages were 97 V, 148 V, 190 V and 169 V, respectively; collision cell voltages were 20 V, 12 V, 52 V and 36 V, respectively; and ionic reactions (m/z) were 401.1→185, 589.2→229, 632.3→86.1 and 616.3→58.1, respectively; drying gas temperature: 350° C.; drying gas flow rate: 10 L/min; atomization air pressure: 30 psi; and the capillary voltage: 4000V.
Each pharmacokinetic parameters were calculated by DAS3.2.5 software, and the formula for calculating the targeting ability evaluation index, i.e., peak concentration ratio Ce and relative uptake rate Re, were shown hereinafter. Celung=(Cmax,lung)compound/(Cmax,lung)drug or control Relung=(AUC0-t,lung)compound/(AUC0-t,lung)drug or control

Row | SMILES | curative effect on lung metastatic tumor [1] | tumor-bearing lung weight [1] | number of lung metastasis tumor nodules [1] | concentration in the lung ([2]; one hour after the administration, tail intravenous injection 10.00 mg/kg) | concentration in the lung compared with 4′-demethylepipodophyllotoxin original drug group and etoposide control group [2] | time for which a relatively high drug concentration in the lung lasted (retention time in the lung) [2] | drug concentration in the lung compared with 4′-demethylepipodophyllotoxin original drug group and etoposide control group [2] | lung relative uptake rate Re (AUC0-t,lung compound / AUC0-t,lung drug) [2] | peak concentration ratio Ce in the lung (Cmax,lung compound / Cmax,lung drug) [2] | lung relative uptake rate Re (AUC0-t,lung compound / AUC0-t,lung control) [2] | peak concentration ratio Ce in the lung (Cmax,lung compound / Cmax,lung control) [2] | concentration in the lung ([2]; mouse, in vivo, iv, 14.71 mg/kg)
1 | COc1cc(C2c3cc4c(cc3C(O)C3COC(=O)C23)OCO4)cc(OC)c1O (stereo not shown) [4′-demethylepipodophyllotoxin, reference compound] | improved the lung metastatic tumor to a certain degree | reduced the tumor-bearing lung weight | decreases the number of lung metastasis tumor nodules | below the detectable limit | – | – | – | – | – | – | – | –
2 | COc1cc([C@@H]2c3cc4c(cc3[C@@H](NC(=O)c3ccc(CN(C)CCCN(C)C)cc3)[C@H]3COC(=O)[C@H]23)OCO4)cc(OC)c1O [compound DC] | best curative effects | least | least | – | much higher | up to 48 hours | much higher | 168.38 times | 5.29 times | 98.16 times | 4.54 times | –
3 | COc1cc([C@@H]2c3cc4c(cc3[C@@H](NC(=O)c3ccc(CN5CCN(C)CC5)cc3)[C@H]3COC(=O)[C@H]23)OCO4)cc(OC)c1O [compound DP] | best curative effects | least | least | – | much higher | ≤ 12 h | much higher | 42.56 times | 5.41 times | 24.81 times | 4.65 times | –
4 | COc1cc([C@@H]2c3cc4c(cc3[C@@H](O[C@@H]3O[C@@H]5CO[C@@H](C)O[C@H]5[C@H](O)[C@H]3O)[C@H]3COC(=O)[C@H]23)OCO4)cc(OC)c1O [etoposide, reference compound] | improved the lung metastatic tumor to a certain degree | reduced the tumor-bearing lung weight | decreases the number of lung metastasis tumor nodules | – | – | – | – | – | – | – | – | below the detectable limit
